Source: patent publication US10098346B2, “Diphenyliodonium salts as sulfidogenesis inhibitors and antimicrobials” (Ecolab USA Inc., priority 2015, dated 2018)

How the values were obtained:
Type in all cases: cell-based
[1] = tested on: sulfur reducing prokaryotes; test: Next-generation DNA sequencing, relative abundance of each genus in treated samples; conditions: 1 ppm, 305 days
[2] = as above; conditions: DPIC 1 ppm - 305 Days
active microbes = test: AccuCount test kit, level of active microbes in injection water aliquots; conditions: injection water (synthetic seawater, produced water, lactate, thiosulfate); 0.1-100 ppm; up to 305 days
Protocol: (§1) A hydrogen sulfide test kit (HACH, Model HS-C) and an AccuCount test kit (available from Nalco Champion) were used to test the efficacy of diphenyliodonium chloride (DPIC) and diphenyliodonium nitrate (DPIN) in 100 mL aliquots of injection water collected by mixing synthetic seawater, produced water from an oil and gas production facility off-shore California, USA, lactate, and thiosulfate. The results of the testing of DPIC at 11 days, 84 days, and 305 days at concentrations of 0.1 ppm, 1 ppm, 10 ppm, and 100 ppm are shown in FIG. 2. The results of the testing of DPIC at 84 days and 305 days at concentrations of 0.1 ppm, 1 ppm, and 10 ppm are shown in FIG. 3. The results of the testing of DPIC and DPIN at 1 day, 7 days, and 14 days at concentrations of 0.1 ppm, 1 ppm, and 10 ppm in synthetic seawater are shown in the FIG. 4. The results of testing of DPIC and DPIN at 4 hours, 1 day, and 30 days at concentrations of 10 ppm and 100 ppm in 80% produced water, 50% produced water, and 20% produced water are shown in FIG. 5.

[3] = tested on: hydrogen sulfide production by sulfur utilizing prokaryote; test: Hydrogen sulfide test kit (HACH, Model HS-C) in injection water aliquots; conditions: injection water (synthetic seawater, produced water, lactate, thiosulfate); 0.1-100 ppm; up to 305 days
Protocol: as §1

Compound | sulfur reducing prokaryotes by DNA sequencing [1] | Relative Abundance, Acholeplasma sp. (APB) [2] | Relative Abundance, Citrobacter sp. (APB) [2] | Relative Abundance, Cryptanaerobacter sp. (APB) [2] | Relative Abundance, Kluyvera sp. (APB/GHB/NRB) [2] | Relative Abundance, Mangrovibacter sp. (NRB) [2] | Relative Abundance, Proteiniphilum sp. (APB) [2] | Relative Abundance, Pseudomonas sp. (NRB/GHB) [2] | Relative Abundance, Raoultella sp. (APB) [2] | Relative Abundance, Serratia sp. (NRB/GHB) [2] | Relative Abundance, Shimwellia sp. (APB) [2] | Relative Abundance, Sphaerochaeta sp. (APB) [2] | Relative Abundance, Thermovirga sp. (SRB) [2] | reducing the level of active microbes (active microbes) | reducing the concentration hydrogen sulfide [3]
[Cl-].c1ccc([I+]c2ccccc2)cc1 [DPIC, diphenyliodonium chloride] | no detectable | 0.2% | 0.3% | 0.1% | 3.5% | 0.2% | 0.3% | 0.5% | 28.8% | 59.3% | 6.7% | 0.2% | 0.1% | effective | effective
O=[N+]([O-])[O-].c1ccc([I+]c2ccccc2)cc1 [DPIN, diphenyliodonium nitrate] | – | – | – | – | – | – | – | – | – | – | – | – | – | effective | effective
